Reference: patent EP0483928A1, “2-Saccharinylmethyl aryl carboxylates useful as proteolytic enzyme inhibitors and compositions and method of use” (STERLING WINTHROP INC., priority 1990, dated 1992)
Structures can show the parent of a compound that is named as a salt. Where two headings read alike, the source gives them in different places.

Target: T1, human leukocyte elastase (HLE) (Homo sapiens, UniProt P08246)
T1 sequence (P08246 30-267): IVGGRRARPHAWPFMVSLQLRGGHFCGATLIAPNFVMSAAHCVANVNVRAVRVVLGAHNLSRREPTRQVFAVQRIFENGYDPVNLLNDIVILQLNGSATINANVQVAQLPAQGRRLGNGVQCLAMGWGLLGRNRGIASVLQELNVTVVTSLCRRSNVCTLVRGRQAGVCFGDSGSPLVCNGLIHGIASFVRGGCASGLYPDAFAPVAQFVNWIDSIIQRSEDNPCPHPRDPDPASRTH
Test: Inhibition of human leukocyte elastase: rate of inactivation kon and inhibition constant Ki* (koff/kon)
Format: biochemical

[1] = Ki* = koff/kon, calculated from measured koff and kon, not a truly reversible Ki, read-out: K*i

Procedure: Thus, instead of measuring a Ki, a Ki* is calculated which is defined as the ratio of the koff/kon, the rate of reactivation of the enzyme to the rate of inactivation of the enzyme. The values of koff and kon are measured and Ki* is then calculated.
The rate of inactivation, kon, of enzymatic activity was determined for the compounds tested by measuring the enzyme activity of an aliquot of the respective enzyme as a function of time after addition of the test compound. […] The rate of inactivation is then equal to [formula] where [I] is the concentration of the inhibiting compound.
The reactivation constant, koff, is similarly determined, and the inhibition constant, Ki*, is then calculated as Ki * = koff /kon [formula]

SMILES	Ki [1] [nM]	Ki [nM]
CN(C)c1cccc2c1C(=O)N(COC(=O)c1c(Cl)cccc1Cl)S2(=O)=O [Example 11, 4-dimethylamino-2-saccharinylmethyl 2,6-dichlorobenzoate]	0.2	–
CCCc1c(OC)c(OC)cc2c1C(=O)N(COC(=O)c1c(Cl)ccc(OCCN3CCOCC3)c1Cl)S2(=O)=O [Example 1BD]	0.07	–
COc1cc(C(C)C)c2c(c1)S(=O)(=O)N(COC(=O)c1c(OC)cccc1OC)C2=O [Example 1BK]	0.088	–
COc1cc(C(C)C)c2c(c1)S(=O)(=O)N(COC(=O)c1c(C)cccc1C)C2=O [Example 1BM]	0.08	–
Cc1cccc(C)c1C(=O)OCN1C(=O)c2c(C(C)C)cccc2S1(=O)=O [Example 1K]	0.09	–
CCCc1c(OC)c(OC)cc2c1C(=O)N(COC(=O)c1c(Cl)cccc1Cl)S2(=O)=O [Example 1BA]	0.078	–
CC(C)c1cccc2c1C(=O)N(COC(=O)c1c3ccccc3cc3ccccc13)S2(=O)=O [Example 1L]	0.3	–
COc1cc2c(c(C(C)C)c1OC)C(=O)N(COC(=O)c1c(Cl)cccc1Cl)S2(=O)=O [Example 1BB]	0.35	–
CC(C)c1cc(OCC(=O)OC(C)(C)C)cc2c1C(=O)N(COC(=O)c1c(Cl)cccc1Cl)S2(=O)=O [Example 7A, 6-(2-t-butoxy-2-oxoethoxy)-4-isopropyl-2-saccharinylmethyl 2,6-dichlorobenzoate]	0.08	–
O=C(OCN1C(=O)C2=C(C3CCC2C3)S1(=O)=O)c1c(Cl)cccc1Cl (centres unmarked) [Example 8, 2-(2,6-dichlorobenzoyloxymethyl)4,5,6,7-tetrahydro-4,7-methano-1,2-benzisothiazol-3(2H)-one 1,1-dioxide]	0.6	–
CC(C)c1cccc2c1C(=O)N(COC(=O)c1cccc3ccccc13)S2(=O)=O [Example 1I]	0.48	–
CC(C)c1cccc2c1C(=O)N(COC(=O)c1cccc(OCc3ccccc3)c1)S2(=O)=O [Example 1X]	0.5	–
COc1ccc(C(=O)OCN2C(=O)c3ccccc3S2(=O)=O)c(OC)c1 [Example 1E]	18	–
CC(C)c1cc(O)cc2c1C(=O)N(COC(=O)c1c(Cl)cccc1Cl)S2(=O)=O [Example 1C, 4-isopropyl-6-hydroxysaccharinylmethyl 2,6-dichlorobenzoate]	0.4	–
O=C(OCN1C(=O)c2ccccc2S1(=O)=O)c1c(Cl)ccc(S(=O)(=O)N2CCOCC2)c1Cl [Example 1S]	2	–
CC(C)c1cc(-c2cccn2C)cc2c1C(=O)N(COC(=O)c1c(Cl)cccc1Cl)S2(=O)=O [Example 5J, 4-isopropyl-6-[2-[1-methyl]pyrrolidinyl]saccharinylmethyl 2,6-dichlorobenzoate]	0.2	–
CC(C)c1cccc2c1C(=O)N(COC(=O)c1c(Cl)ccc(OCc3ccccc3)c1Cl)S2(=O)=O [Example 1Y]	0.12	–
CC(C)c1cccc2c1C(=O)N(COC(=O)c1ccc(Cl)cc1Cl)S2(=O)=O [Example 1AO]	1	–
CC(C)c1cccc2c1C(=O)N(COC(=O)c1cc(Cl)ccc1Cl)S2(=O)=O [Example 1M]	0.25	–
COc1cc(C(C)C)c2c(c1OC)S(=O)(=O)N(COC(=O)c1c(Cl)ccc(S(=O)(=O)N3CCN(C)CC3)c1Cl)C2=O [Example 1BH]	0.6	–
O=C(OCN1C(=O)c2ccccc2S1(=O)=O)c1cccc2ccccc12 [Example 1F]	3	–
O=C(OCN1C(=O)c2ccccc2S1(=O)=O)c1c2ccccc2cc2ccccc12 [Example 1AM]	2.1	–
COc1cc(C(C)C)c2c(c1)S(=O)(=O)N(COC(=O)c1c(OC)cc(OCc3ccccc3)cc1OC)C2=O [Example 1BP]	0.35	–
CC(C)C1CCCC2=C1C(=O)N(COC(=O)c1c(Cl)ccc(S(=O)(=O)N(C)CCN(C)C)c1Cl)S2(=O)=O (centres unmarked) [Example 9E, 4-isopropyl-4,5,6,7-tetrahydro-2-saccharinylmethyl 2,6-dichloro-3-[[2-(N,N-dimethylamino)ethyl]-N-methylaminosulfonyl]benzoate hydrochoride]	2	–
CCOP(=O)(OCC)c1cccc(C(=O)OCN2C(=O)c3c(C(C)C)cc(OC)cc3S2(=O)=O)c1 [Example 1BE]	–	0.064
COc1cc(C(C)C)c2c(c1OC)S(=O)(=O)N(COC(=O)c1c(Cl)cccc1Cl)C2=O [Example 1BF]	2	–
CCc1c(OC)cc(OC)c2c1C(=O)N(COC(=O)c1c(Cl)cccc1Cl)S2(=O)=O [Example 1AY]	0.9	–
COc1cc(C(C)C)c2c(c1)S(=O)(=O)N(COC(=O)c1c(C)cc(OCc3ccccc3)cc1C)C2=O [Example 1BZ]	0.3	–

More lines, main results first:

Ki [1] [nM]	SMILES	Ki [nM]
0.025	CC(C)c1cccc2c1C(=O)N(COC(=O)c1c(Cl)cc(OCCN3CCOCC3)cc1Cl)S2(=O)=O [Example 1BY]	–
0.056	CC(C)c1cc(OCC(=O)OCc2ccccc2)cc2c1C(=O)N(COC(=O)c1c(Cl)cccc1Cl)S2(=O)=O [Example 7B, 6-(2-benzyloxy-2-oxoethoxy)-4-isopropyl-2-saccharinylmethyl 2,6-dichlorobenzoate]	–
0.043	COc1cc(C(C)C)c2c(c1)S(=O)(=O)N(COC(=O)c1c(F)cccc1F)C2=O [Example 1BL]	–
0.06	CC(C)c1cccc2c1C(=O)N(COC(=O)c1c(Cl)ccc(S(=O)(=O)N3CCN(Cc4ccccc4)CC3)c1Cl)S2(=O)=O [Example 1Z, 4-isopropyl-2-saccharinylmethyl 2,6-dichloro-3-(4-benzyl-1-piperazinyl-sulfonyl)benzoate]	–
0.01	CC(C)c1cccc2c1C(=O)N(COC(=O)c1c(Cl)ccc(S(=O)(=O)N(C)CCN(C)C)c1Cl)S2(=O)=O [Example 1AA]	–
0.025	COc1cc(C(C)C)c2c(c1)S(=O)(=O)N(COC(=O)c1c(OC)ccc([N+](=O)[O-])c1OC)C2=O [Example 1BN]	–
0.017	COC(=O)COc1cc(C(C)C)c2c(c1)S(=O)(=O)N(COC(=O)c1c(Cl)cccc1Cl)C2=O [Example 5E]	–
0.023	CCN(CC)CCOc1ccc(Cl)c(C(=O)OCN2C(=O)c3c(C(C)C)cc(OC)cc3S2(=O)=O)c1Cl [Example 1AV]	–
0.054	CC(C)c1cc(OC2CCC2)cc2c1C(=O)N(COC(=O)c1c(Cl)cccc1Cl)S2(=O)=O [Example 5G]	–
0.033	CCOc1cc(C(C)C)c2c(c1)S(=O)(=O)N(COC(=O)c1c(Cl)ccc(OCCN3CCOCC3)c1Cl)C2=O [Example 1AX]	–
0.009	CC(C)c1cccc2c1C(=O)N(COC(=O)c1c(Cl)ccc(OCCN(C)C)c1Cl)S2(=O)=O [Example 1AE]	–
0.025	COc1cc(Cl)c(C(=O)OCN2C(=O)c3c(C(C)C)cccc3S2(=O)=O)c(Cl)c1 [Example 1AC]	–
0.03	COCCOCCOc1cc(C(C)C)c2c(c1)S(=O)(=O)N(COC(=O)c1c(Cl)cccc1Cl)C2=O [Example 5D]	–
0.027	COCC(COc1cc(C(C)C)c2c(c1)S(=O)(=O)N(COC(=O)c1c(Cl)cccc1Cl)C2=O)OC (racemic) [Example 5F]	–
0.03	COc1cc(C(C)C)c2c(c1)S(=O)(=O)N(COC(=O)c1c(Cl)ccc(OCCN3CCCCC3)c1Cl)C2=O [Example 1AU]	–
0.007	CC(C)c1cccc2c1C(=O)N(COC(=O)c1c(Cl)ccc(S(=O)(=O)N3CCN(C)CC3)c1Cl)S2(=O)=O [Example 1V]	–

Ki [1] [nM]	SMILES	Ki [nM]
0.068	COc1cc(F)c(C(=O)OCN2C(=O)c3c(C(C)C)cc(OC)cc3S2(=O)=O)c(F)c1 [Example 1BQ]	–
0.016	CC(C)c1cc(OCC(O)CO)cc2c1C(=O)N(COC(=O)c1c(Cl)cccc1Cl)S2(=O)=O (centres unmarked) [Example 6, 6-(2,3-dihydroxypropoxy)-4-isopropylsaccharinylmethyl 2,6-dichlorobenzoate]	–
0.013	COc1cc(C(C)C)c2c(c1)S(=O)(=O)N(COC(=O)c1c(Cl)ccc(OCCN(C)C)c1Cl)C2=O [Example 1AS]	–
0.057	CC(C)Oc1cc(C(C)C)c2c(c1)S(=O)(=O)N(COC(=O)c1c(Cl)cccc1Cl)C2=O [Example 5B]	–
0.01	CC(C)c1cccc2c1C(=O)N(COC(=O)c1c(F)ccc(S(=O)(=O)N3CCN(C)CC3)c1F)S2(=O)=O [Example 1AG]	–
0.01	CC(C)c1cccc2c1C(=O)N(COC(=O)c1c(Cl)ccc(OCC(=O)O)c1Cl)S2(=O)=O [Example 3, 4-isopropyl-2-saccharinylmethyl 2,6-dichloro-3-carboxymethoxybenzoate]	–
0.02	CC(C)c1cccc2c1C(=O)N(COC(=O)c1c(Cl)ccc(S(=O)(=O)N3CCNCC3)c1Cl)S2(=O)=O [Example 2B, 4-isopropyl-2-saccharinylmethyl 2,6-dichloro-3-(1-piperazinylsulfonyl)benzoate hydrochloride]	–
0.04	CC(C)c1cccc2c1C(=O)N(COC(=O)c1c(Cl)ccc(O)c1Cl)S2(=O)=O [Example 2A, 4-isopropyl-2-saccharinylmethyl 2,6-dichloro-3-hydroxybenzoate]	–
0.008	COc1cc(C(C)C)c2c(c1)S(=O)(=O)N(COC(=O)c1c(Cl)ccc(S(=O)(=O)NCC(=O)O)c1Cl)C2=O [Example 2D, 4-isopropyl-6-methoxy-2-saccharinylmethyl 2,6-dichloro-3-carboxymethylamino-sulfonylbenzoate]	–
0.05	COc1cc(OC)c(C(=O)OCN2C(=O)c3c(C(C)C)cc(OC)cc3S2(=O)=O)c(OC)c1 [Example 1BO]	–
0.05	CCOc1cc(C(C)C)c2c(c1)S(=O)(=O)N(COC(=O)c1c(Cl)cccc1Cl)C2=O [Example 5A, 6-ethoxy-4-isopropyl-2-saccharinylmethyl 2,6-dichlorobenzoate]	–
0.043	CC(C)c1cc2c(c3c1C(=O)N(COC(=O)c1c(Cl)cccc1Cl)S3(=O)=O)OCO2 [Example 1BG]	–
0.057	COc1cc(C(C)C)c2c(c1)S(=O)(=O)N(COC(=O)c1c(OC)ccc(NC(C)=O)c1OC)C2=O [Example 1BR]	–
0.01	CC(C)c1cccc2c1C(=O)N(COC(=O)c1c(Cl)ccc(S(=O)(=O)N(C)CCCN(C)C)c1Cl)S2(=O)=O [Example 1AF]	–
0.016	COc1ccc(Cl)c(C(=O)OCN2C(=O)c3c(C(C)C)cccc3S2(=O)=O)c1Cl [Example 1AB]	–
